# Experimental data published in the supplement of paper PMC10307832.
# Assays:
# Assay in all cases: relative viability (nuclei count vs DMSO), 5 days (fraction); higher = more cells survive
# [1] = compound: CCOC1=CC=CC=C1N=NC2=C(NN(C2=O)C3=NC(=CS3)C4=CC=CC=C4)C [BAM7] + CC1(C)CCC(c2ccc(Cl)cc2)=C(CN2CCN(c3ccc(C(=O)NS(=O)(=O)c4ccc(N[C@H](CCN5CCOCC5)CSc5ccccc5)c(S(=O)(=O)C(F)(F)F)c4)cc3)CC2)C1 [Navitoclax] (partner 0.5 µM)
# How it was run: (§1)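 Medians of duplicate plates are given as relative viability. That measure is the nuclei count in treated wells divided by the count in vehicle wells. Counts were taken on 4× images of lung cancer cell lines in 1536-well plates, 5 days after pin-tool dosing the day after seeding with one drug alone or a fixed anchor-drug dose plus five library-drug doses (not always all listed) in √10 steps.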
# [2] = compound: CCOC1=CC=CC=C1N=NC2=C(NN(C2=O)C3=NC(=CS3)C4=CC=CC=C4)C [BAM7] + N=C(N)NC(=N)NCCc1ccccc1 [Phenformin] (partner 250 µM)
# How it was run: as §1
# [3] = compound: CCn1c(-c2nonc2N)nc2c(C#CC(C)(C)O)ncc(OC[C@H]3CCCNC3)c21 + CCNC(=O)c1noc(-c2cc(C(C)C)c(O)cc2O)c1-c1ccc(CN2CCOCC2)cc1 [Luminespib] (partner 0.01 µM)
# How it was run: as §1
# [4] = compound: CCn1c(-c2nonc2N)nc2c(C#CC(C)(C)O)ncc(OC[C@H]3CCCNC3)c21 + Cc1nc(NC(=O)N2CCC[C@H]2C(N)=O)sc1-c1ccnc(C(C)(C)C(F)(F)F)c1 [Alpelisib] (partner 2 µM)
# How it was run: as §1
Cell Line,relative viability ([1]; first compound 0.5 µM),relative viability ([1]; first compound 5 µM),relative viability ([1]; first compound 15.81 µM),relative viability ([1]; first compound 50 µM),relative viability ([2]; first compound 0.5 µM),relative viability ([2]; first compound 5 µM),relative viability ([2]; first compound 15.81 µM),relative viability ([2]; first compound 50 µM),relative viability ([3]; first compound 0.01 µM),relative viability ([3]; first compound 0.03162 µM),relative viability ([3]; first compound 0.1 µM),relative viability ([3]; first compound 0.3162 µM),relative viability ([3]; first compound 1 µM),relative viability ([4]; first compound 0.01 µM),relative viability ([4]; first compound 0.03162 µM),relative viability ([4]; first compound 0.1 µM),relative viability ([4]; first compound 0.3162 µM),relative viability ([4]; first compound 1 µM)
NCI-H1944,1.07,1.14,0.875,0.882,0.223,0.199,0.205,0.22,0.7,0.786,0.76,0.751,0.733,0.886,0.759,0.844,0.804,0.777
NCI-H1975,0.9,1.1,,0.862,0.401,0.425,0.391,0.427,0.214,0.166,0.199,0.247,0.304,0.716,0.656,0.623,0.543,0.583
NCI-H1993,0.819,0.899,0.739,0.813,0.575,0.617,0.533,0.543,0.84,0.728,0.739,0.645,0.686,0.732,0.718,0.57,0.729,0.868
NCI-H2009,1.25,1.17,1.15,1.17,0.497,0.542,0.426,0.465,1.07,0.981,1.06,0.986,0.983,1.15,1.19,1.22,1.17,1.18
NCI-H2023,1.04,0.888,0.886,0.982,0.446,0.393,0.37,0.411,0.636,0.981,0.664,0.67,0.498,0.636,0.625,0.539,0.504,0.559
NCI-H2085,1.13,1.24,1.02,1.21,0.691,0.619,0.625,0.711,0.417,0.382,0.492,0.42,0.463,0.974,0.866,0.988,0.865,0.84
NCI-H2087,0.92,1.13,0.942,1.02,0.464,0.473,0.43,0.49,0.128,0.154,0.165,0.152,0.163,0.917,1.2,1.13,1.02,0.927
NCI-H2126,0.841,0.857,0.86,0.849,0.494,0.54,0.473,0.556,0.85,0.914,0.892,0.859,0.961,0.72,0.793,0.74,0.746,0.753
NCI-H2170,0.559,0.581,0.479,0.598,0.385,0.362,0.388,0.371,0.779,0.785,0.572,0.731,0.744,0.837,0.833,0.824,0.721,0.759
NCI-H2228,0.985,1.4,0.818,1.27,0.302,0.355,0.418,0.317,0.0991,0.159,0.145,0.113,0.123,0.68,0.854,0.622,0.651,0.569
NCI-H2347,0.765,0.918,0.806,0.861,0.622,0.31,,0.37,0.396,0.0975,,0.516,0.31,1.09,0.97,0.992,0.972,1.17
NCI-H2405,0.946,1.11,0.747,1,0.395,0.411,0.416,0.435,0.542,0.793,0.663,0.647,0.698,0.839,0.782,,0.749,0.855
NCI-H3122,1.07,0.984,1.06,1.07,0.362,0.371,0.329,0.35,0.0785,0.0949,0.101,0.072,0.0984,0.869,0.71,0.795,0.798,0.756
PC-3 [JPC-3],0.688,0.815,0.755,0.626,0.447,0.491,0.458,0.439,0.734,0.726,0.709,0.67,0.591,1.16,1.02,0.977,1.02,1.02
PC-14,1.05,1.09,1,0.938,0.619,0.558,0.588,0.591,0.173,0.112,0.158,0.107,0.148,0.945,0.909,1,0.888,0.865
RERF-LC-KJ,0.908,0.805,0.907,0.847,0.357,0.35,0.29,0.328,1.12,1.31,1.27,1.19,1.1,0.886,0.958,0.737,0.656,0.781
SK-LU-1,0.487,1.01,0.8,0.827,0.556,0.733,0.532,0.619,0.22,0.2,0.211,0.22,0.215,1.08,1.26,0.968,1,1.13
SK-MES-1,1.37,1.36,1.23,1.23,0.721,0.724,0.607,0.659,0.907,0.904,0.674,0.712,0.743,0.87,0.916,0.856,1.11,0.953
